Experimental data: US7037896B1, “Peptide (VIRIP) which inhibits a circulating virus in humans and the use thereof” (priority 1999, dated 2006)

What was measured:
X4-tropic HIV variants = test: Replication of HIV isolates in human PBMC (RT activity), X4-tropic variants; type: cell-based
Experimental: (§1) FIG. 5: VIRIP inhibits the replication of various HIV isolates with different cell- and co-receptor-tropisms in human PBMC. Prestimulated PBMC were treated with the various HIV-1 isolates (10 ng of p27 antigen) or a chimeric onco-lentivirus (Mu-HIV) in the presence of the VIRIP concentrations shown. Viral replication was determined by measuring the reverse transcriptase activity in the cell culture supernatant.
(§2) The inhibitory effects on R5-tropic forms were lesser. A chimeric onco-lentivirus (Mu-HIV) carrying the MLV envelope protein was not inhibited (FIG. 5, bottom).

[1] = tested on: R5-tropic HIV-1 NL4-3 V3 variants; test: Infection of P4R5 indicator cells with NL4-3 V3 recombinants, R5-tropic variants; type: cell-based; details: 50 ng of p24, luciferase test
From the text: (§3) FIG. 3: The V3 loop of the X4-tropic NL43 clone was exchanged for the corresponding sequences of the HIV-1 isolates shown. Thus, the recombinant viruses are distinguished exclusively in the V3 loop. In the right panel, the observed inhibitors effect (%), the overall charge of the V3 region and the co-receptor-tropism are shown. At the bottom, the consensus sequence (SEQ ID NO: 6) is shown.
(§4) The V3 loop of the X4-tropic NL4-3 clone was replaced by the corresponding region of a number of primary HIV-1 isolates. […] To determine the inhibitory influence of VIRIP on these variants, P4R5 indicator cells were examined. P4R5 cells express both CCR5 and CXCR4 and contain the luciferase gene under the control of HIV-1 LTR. This cell line was infected with the various recombinant viruses (50 ng of p24) in the presence and absence of VIRIP, and the infection was quantified using the luciferase test.

[2] = tested on: X4-tropic HIV-1 NL4-3 V3 variants; test: Infection of P4R5 indicator cells with NL4-3 V3 recombinants, X4-tropic variants; type: cell-based
From the text: as §3, §4

dual-tropic HIV variants = test: Replication of HIV isolates in human PBMC (RT activity), dual-tropic variants; type: cell-based
Experimental: as §1, §2

HIV-1 NL43 = test: Replication of HIV-1 in human PBMCs (reverse transcriptase test in culture supernatant); type: cell-based
Experimental: FIG. 1: Purification of VIRIP. The purification steps are described in the text. (b) Inhibition of the replication of HIV-1 NL43 in human blood lymphocytes by fraction 1–20. The cells were stimulated with PHA for 2 days, infected with virus stocks containing 10 ng of p24, and the reverse transcriptase activity determined in the culture supernatant 9 days after the infection. The result of the infection experiments is shown.
The isolation of VIRIP was effected on the basis of its inhibitory action on the replication of HIV-1 in an assay which measures the replication of HIV-1 in human peripheral blood lymphocytes (PBMCs). Thus, aliquots of each of the individual chromatographic fractions described under Example 1 were freeze-dried and then subjected to the biological assay in amounts of from 10 ml up to 1 l of hemofiltrate equivalent. The respective fractions which gave a positive signal were subjected to further purification.
Human peripheral blood lymphocytes (PBMCs) were obtained from whole blood using density gradient centrifugation in Ficoll. The cells were prestimulated for two days (RPMI medium, 20% FKS, 100 U/ml IL-2, 5 μg/ml phytohemagglutinin [PHA]). Then, the PBMCs were sedimented by centrifugation at 1200 rpm for 5 min, taken up in PHA-free RPMI medium (20% FKS, 100 U/ml IL-2) and seeded in 96-well flat-bottomed plates in a volume of 80 μl in concentrations of about 150,000 cells per well.
On the following day, aliquots of the individual chromatographic steps described under Example 1 were supplied in amounts of from 10 ml up to 1 l of hemofiltrate equivalent. Thus, the freeze-dried chromatographic fractions were taken up in water and pipetted to the PBMCs in various concentrations in a total volume of 10 μl. After 2 hours of incubation at 37° C., the cells were infected by the addition of 10 μl of HIV-1 virus stock containing from 0.1 to 10 ng of p24 antigen. Subsequently, 50 μl of the culture medium was replaced every 2 days by fresh medium which additionally contained the corresponding peptide fractions. The production of HIV particles at different times (after 9, 12 and 18 days) from the infection of the cells was quantified in a reverse transcriptase (RT) test. The RT test measures the activity of reverse transcriptase in a cell-free culture supernatant, which is thus a measure of the production of viral particles and viral replication in the PBMC cultures. Alternatively, the viral production was determined in p24 antigen ELISA.

HIV-1 = details: three days after infection
Experimental: FIG. 2: Influence of synthetic VIRIP on the infection of CEMx174-SEAP indicator cells (left) and replication in human PBMCs (right). The cells were infected and cultured in the presence of the stated amounts of VIRIP. To determine the viral entry, the activity of the secreted alkaline phosphatase was determined in the culture supernatant of the CEMx174-SEAP cells three days after the infection.

R5-tropic forms = test: Replication of HIV isolates in human PBMC (RT activity), R5-tropic forms; type: cell-based; details: compared with X4-tropic and dual-tropic variants
Experimental: as §1, §2

R5-tropic 92TH isolate = test: Dose-dependent inhibition of infection of P4R5 indicator cells, 92TH isolate; type: cell-based, HIV-1
Experimental: (§5) P4R5 indicator cells were infected in the presence of the shown concentrations of VIRIP, and the β-galactosidase activity was measured in the cell extract 2 days after the infection.
(§6) In order to quantify the inhibitory effect of the substance according to the invention more precisely, P4R5 indicator cells were infected with the X4-tropic HIV-1 P59S isolate and the R5-tropic 92TH isolate in the presence of different doses of VIRIP.

[3] = tested on: X4-tropic HIV-1 P59S isolate; test: Dose-dependent inhibition of infection of P4R5 indicator cells, P59S isolate; type: cell-based; details: 2 days after infection
Experimental: as §5, §6

blood cells = test: Cytotoxic effect on the blood cells
[4] = tested on: X4/R5-tropic HIV-1 NL4-3 V3 variants; test: Infection of P4R5 indicator cells with NL4-3 V3 recombinants, X4/R5-tropic variants; type: cell-based; details: 50 ng of p24, luciferase test
From the text: as §3, §4

[5] = tested on: chimeric onco-lentivirus (Mu-HIV) carrying the MLV envelope protein; test: Replication of chimeric onco-lentivirus in human PBMC (RT activity); type: cell-based
Experimental: as §1, §2

LEAIPMSIPPEVKFNKPFVF [VIRIP, 20-amino-acid fragment (amino acids 353 to 372) of human alpha-1-antitrypsin, isolated from hemofiltrate and also chemically synthesized]
suppression of replication of X4-tropic HIV variants (X4-tropic HIV variants; 100 μg/ml): at least partially
suppression of replication of X4-tropic HIV variants (X4-tropic HIV variants; 1000 μg/ml): completely
inhibition of R5-tropic variants [1]: inhibited
efficiency of inhibition of X4-tropic variants having a strongly positively charged V3 loop as compared with R5-tropic or dual-tropic isolates [2]: inhibited more efficiently
inhibition of X4-tropic variants ([2]; 50 ng of p24, luciferase test): inhibited
suppression of replication of dual-tropic HIV variants (dual-tropic HIV variants; 100 μg/ml): at least partially
suppression of replication of dual-tropic HIV variants (dual-tropic HIV variants; 1000 μg/ml): completely
inhibition of the replication of HIV-1 in PBMCs (HIV-1 NL43; listed as VIRIP from hemofiltrate): effectively block
inhibition of the replication of HIV-1 in PBMCs (HIV-1 NL43; listed as VIRIP purified from hemofiltrate): dose-dependent inhibition
inhibition of the replication of HIV-1 in PBMCs (HIV-1 NL43; listed as chemically synthesized VIRIP): dose-dependent inhibition
inhibition of the replication of HIV-1 in PBMCs (HIV-1 NL43; listed as synthetically prepared VIRIP): dose-dependent suppression
inhibition of the replication of HIV-1 in PBMCs (HIV-1 NL43; listed as synthetically prepared peptide): effectively block
inhibition of the HIV-1 infection of CEMx174-SEAP indicator cells (HIV-1): dose-dependent inhibition
inhibitory effects on R5-tropic forms (R5-tropic forms): lesser
concentrations required for inhibiting the 92TH isolate relative to P59S (R5-tropic 92TH isolate): about twofold higher concentrations
concentration inhibiting the HIV-1 P59S isolate by 50% [3]: 40 µg/mL
concentration inhibiting the HIV-1 P59S isolate by 90% [3]: 180 µg/mL
cytotoxic effect on the blood cells (blood cells): does not exert any cytotoxic effect
inhibition of X4/R5-tropic variants [4]: inhibited
inhibition of chimeric onco-lentivirus (Mu-HIV) [5]: not inhibited
